According to ChEMBL document CHEMBL1148103, “Antifungal steroidal glycosides from the patagonian starfish anasteriasminuta: structure-activity correlations” (2002):
Active and inactive are the calls of the source. No cut-off for these calls is given here.

Tests used:
Cladosporium cucumerinum [1] = assay: Antifungal activity against Cladosporium cucumerinum after 2 to 3 days by bioautographic assay; type: functional, organism-based
Cladosporium cucumerinum [2] = assay: Antifungal activity against Cladosporium cucumerinum at 10 ug/spot after 2 to 3 days by bioautographic assay; type: functional

Row | Compound | Activity (Cladosporium cucumerinum [1]) | inhibition zone (IZ) (Cladosporium cucumerinum [2])
1 | CC(C)CC(=O)C[C@@](C)(O)[C@H]1CC[C@H]2[C@@H]3C[C@H](O[C@@H]4O[C@H](C)[C@@H](O)[C@H](O[C@@H]5OC[C@@H](O[C@@H]6O[C@H](CO)[C@H](O)[C@H](O)[C@H]6O[C@@H]6O[C@H](C)[C@H](O[C@@H]7O[C@H](CO)[C@H](O)[C@H](O)[C@H]7O)[C@H](O)[C@H]6O)[C@H](O)[C@H]5O[C@@H]5O[C@H](C)[C@@H](O)[C@H](O)[C@H]5O)[C@H]4O)[C@H]4C[C@@H](OS(=O)(=O)O)CC[C@]4(C)C3=CC[C@@]21C | Dose-dependent effect | –
2 | CC(=O)[C@H]1CC[C@H]2[C@@H]3C[C@H](O[C@@H]4O[C@H](C)[C@@H](O)[C@H](O[C@@H]5OC[C@@H](O[C@@H]6O[C@H](CO)[C@H](O)[C@H](O)[C@H]6O[C@@H]6O[C@H](C)[C@H](O[C@@H]7O[C@H](CO)[C@H](O)[C@H](O)[C@H]7O)[C@H](O)[C@H]6O)[C@H](O)[C@H]5O[C@@H]5O[C@H](C)[C@@H](O)[C@H](O)[C@H]5O)[C@H]4O)[C@H]4C[C@@H](OS(=O)(=O)O)CC[C@]4(C)C3=CC[C@]12C | inactive | –
3 | CCCCNC(=O)n1c(NC(=O)OC)nc2ccccc21 [BENOMYL] | – | 20 mm
4 | CC(C)CC(=O)C[C@@H](C)[C@H]1CC[C@H]2[C@@H]3C[C@H](O[C@@H]4O[C@H](C)[C@@H](O)[C@H](O[C@@H]5OC[C@@H](O[C@@H]6O[C@H](CO)[C@H](O)[C@H](O)[C@H]6O[C@@H]6O[C@H](C)[C@H](O[C@@H]7O[C@H](CO)[C@H](O)[C@H](O)[C@H]7O)[C@H](O)[C@H]6O)[C@H](O)[C@H]5O[C@@H]5O[C@H](C)[C@@H](O)[C@H](O)[C@H]5O)[C@H]4O)[C@H]4C[C@@H](OS(=O)(=O)O)CC[C@]4(C)C3=CC[C@]12C | Dose-dependent effect | –
5 | CC(C)CC(=O)C[C@@](C)(O)[C@H]1CC[C@H]2[C@@H]3C[C@H](O[C@@H]4O[C@H](C)[C@@H](O)[C@H](O[C@@H]5OC[C@@H](O[C@@H]6O[C@H](CO)[C@H](O)[C@H](O)[C@H]6O[C@@H]6O[C@H](C)[C@H](O)[C@H](O)[C@H]6O)[C@H](O)[C@H]5O[C@@H]5O[C@H](C)[C@@H](O)[C@H](O)[C@H]5O)[C@H]4O)[C@H]4C[C@@H](OS(=O)(=O)O)CC[C@]4(C)C3=CC[C@@]21C | Dose-dependent effect | –
6 | CC(C)CC(=O)C[C@@](C)(O)[C@H]1CC[C@H]2[C@@H]3C[C@H](O[C@@H]4O[C@H](C)[C@@H](O)[C@H](O[C@@H]5OC[C@@H](O)[C@H](O)[C@H]5O[C@@H]5O[C@H](C)[C@@H](O)[C@H](O)[C@H]5O)[C@H]4O)[C@H]4C[C@@H](OS(=O)(=O)O)CC[C@]4(C)C3=CC[C@@]21C | inactive | –
